The source of these data is ChEMBL document CHEMBL4184190, “Podophyllotoxin derivatives as an excellent anticancer aspirant for future chemotherapy: A key current imminent needs” (Bioorg Med Chem, 2018).

What all share (type): functional, cell-based
Test [1] has as its system A549. As to the kind of experiment: Cytotoxicity against human A549 cells after 48 hrs by MTT assay. Particulars: A549, 48 h. (In general: Tetrazolium assays rely on reduction of a dye to a coloured formazan, in cell work by metabolically active cells.)
Test [2] concerns K562. As to the kind of experiment: Cytotoxicity against human K562 cells after 48 hrs by MTT assay. Particulars: K562, 48 h.
Test [3] relates to U-251. As to the kind of experiment: Cytotoxicity against human U251 cells after 48 hrs by MTT assay. The note with it: U-251, 48 h.
For test [4], the system named is DU-145. Put plainly: Cytotoxicity against human DU145 cells after 48 hrs by MTT assay. Particulars: DU-145, 48 h.
Test [5] relates to MCF7. Put plainly: Cytotoxicity against human MCF7 cells after 48 hrs by MTT assay. Particulars: MCF7, 48 h.
In test [6] the test system is HeLa. As to the kind of experiment: Cytotoxicity against human HeLa cells after 48 hrs by MTT assay.
Test [7] has as its system BGC-823. As to the kind of experiment: Cytotoxicity against human BGC823 cells after 48 hrs by MTT assay. Particulars: BGC-823, 48 h.
Test [8] concerns HeLa. Put plainly: Cytotoxicity against human HeLa cells by MTT assay.

Broadly, the IC50 is the concentration at which inhibition is half-maximal. A lower IC50 goes with inhibition by little substance. For `COc1cc([C@@H]2c3cc4c(cc3[C@@H](Nc3cccc(CN5CCCCC5)c3)[C@H]3COC(=O)[C@H]23)OCO4)cc(OC)c1OC`, the IC50 in test [1] was found to be 14500 nM; in test [2], 1100 nM; in test [3] it was 400 nM.

For the compound `COc1cc([C@@H]2c3cc4c(cc3[C@@H](c3nc5ccc(OC)c(OC)c5o3)[C@H]3COC(=O)[C@H]23)OCO4)cc(OC)c1OC`, the IC50 in test [4] is 1200 to 5300 nM; in test [1] it was 1800 nM; in test [5] it was 2000 nM; in test [6] it was 1200 to 5300 nM.

On to `COc1cc([C@@H]2c3cc4c(cc3[C@@H](Nc3ncccc3F)[C@H]3COC(=O)[C@H]23)OCO4)cc(OC)c1O`, for which the IC50 in test [7] amounted to 960 nM; in test [5], 1420 nM; in test [6], 60 nM.

In the case of `CCN(CC)C(=O)c1ccc2[nH]cc(C(=O)C(=O)N[C@@H]3c4cc5c(cc4[C@@H](c4cc(OC)c(OC)c(OC)c4)[C@H]4C(=O)OC[C@@H]43)OCO5)c2c1`, in test [8], 5190 nM corresponded to half-maximal inhibition (IC50).

For `COc1ccc2nc([C@@H]3c4cc5c(cc4[C@@H](c4cc(OC)c(OC)c(OC)c4)[C@H]4C(=O)OC[C@H]34)OCO5)oc2c1`, the IC50 in test [4], in test [1], in test [5] and in test [6] was 1200 to 5300 nM throughout.

Take `COc1cc([C@@H]2c3cc4c(cc3[C@@H](c3nc5ccc(Cl)cc5o3)[C@H]3COC(=O)[C@H]23)OCO4)cc(OC)c1OC`: the IC50 in test [4], in test [1], in test [5] and in test [6] was 1200 to 5300 nM throughout.

The compound `COc1cc([C@@H]2c3cc4c(cc3[C@@H](NC(=O)C(=O)c3c[nH]c5ccc(C(=O)N6CCCCC6)cc35)[C@H]3COC(=O)[C@H]23)OCO4)cc(OC)c1OC` showed an IC50 in test [8] of 5570 nM.

In the case of `COc1cc([C@@H]2c3cc4c(cc3[C@@H](Nc3ncccc3F)[C@H]3COC(=O)[C@H]23)OCO4)cc(OC)c1OC`, the IC50 came out at 2180 nM in test [7], 4490 nM in test [5] and 200 nM in test [6].

As for `COc1cc([C@@H]2c3cc4c(cc3[C@@H](NC(=O)C(=O)c3c[nH]c5ccc(C(=O)NC(C)C)cc35)[C@H]3COC(=O)[C@H]23)OCO4)cc(OC)c1OC`, the IC50 in test [8] was 3920 nM.

As for `COc1cc([C@@H]2c3cc4c(cc3[C@@H](O[C@@H]3O[C@@H]5CO[C@@H](C)O[C@H]5[C@H](O)[C@H]3O)[C@H]3COC(=O)[C@H]23)OCO4)cc(OC)c1O` [ETOPOSIDE], the IC50 in test [4], in test [1], in test [5] and in test [6] was 2030 to 5740 nM throughout.

As to `COc1cc([C@@H]2c3cc4c(cc3[C@@H](c3nc5ccccc5o3)[C@H]3COC(=O)[C@H]23)OCO4)cc(OC)c1OC`, the IC50 in test [4], in test [1], in test [5] and in test [6] was 1200 to 5300 nM in each case.
